Data reported in the NIST ThermoML archive (doi:10.1021/je900404r).

What was measured:
[1] = 101 kPa, Liquid, Vibrating tube method
[2] = xn = mol fraction of the nth substance listed; conditions: 101 kPa, Liquid, Vibrating tube method

CC(Cl)(Cl)Cl [1,1,1-trichloroethane]
[1]
Conditions	mass density [kg/m3]
288.15 K	1344.95
298.15 K	1328.27
308.15 K	1311.45
318.15 K	1294.47

CC(Cl)(Cl)Cl [1,1,1-trichloroethane] + O=C1CCCCC1
mass density [kg/m3], [2]
Conditions	x1 = 0.1151	x1 = 0.2288	x1 = 0.3155	x1 = 0.4163	x1 = 0.5167	x1 = 0.6059	x1 = 0.7081	x1 = 0.8062	x1 = 0.8979	x1 = 1
288.15 K	996.74	1041.75	1076.19	1116.3	1156.17	1191.52	1231.85	1270.3	1305.81	1344.95
298.15 K	987.13	1031.43	1065.28	1104.68	1143.81	1178.45	1217.94	1255.52	1290.16	1328.27
308.15 K	977.49	1021.06	1054.33	1093.01	1131.39	1165.33	1203.95	1240.64	1274.41	1311.45
318.15 K	967.81	1010.65	1043.33	1081.28	1118.9	1152.12	1189.86	1225.64	1258.51	1294.47

ClC(Cl)C(Cl)Cl [1,1,2,2-tetrachloroethane]
[1]
Conditions	mass density [kg/m3]
288.15 K	1604.75
298.15 K	1589.18
308.15 K	1573.57
318.15 K	1557.94

ClC(Cl)C(Cl)Cl [1,1,2,2-tetrachloroethane] + O=C1CCCCC1
mass density [kg/m3], [2]
Conditions	x1 = 0.1147	x1 = 0.2121	x1 = 0.3045	x1 = 0.4052	x1 = 0.4996	x1 = 0.5909	x1 = 0.6868	x1 = 0.782	x1 = 0.8798	x1 = 1
288.15 K	1029.34	1094.87	1156.78	1223.8	1286.07	1345.8	1407.73	1468.5	1530.11	1604.75
298.15 K	1019.79	1084.77	1146.13	1212.52	1274.18	1333.31	1394.58	1454.64	1515.52	1589.18
308.15 K	1010.2	1074.62	1135.43	1201.2	1262.26	1320.77	1381.38	1440.76	1500.89	1573.57
318.15 K	1000.58	1064.44	1124.7	1189.84	1250.3	1308.2	1368.14	1426.83	1486.23	1557.94

ClCCCl [1,2-dichloroethane]
[1]
Conditions	mass density [kg/m3]
288.15 K	1260.01
298.15 K	1245.48
308.15 K	1230.83
318.15 K	1216.04

ClCCCl [1,2-dichloroethane] + O=C1CCCCC1
mass density [kg/m3], [2]
Conditions	x1 = 0.1142	x1 = 0.2318	x1 = 0.3197	x1 = 0.4227	x1 = 0.519	x1 = 0.6155	x1 = 0.7061	x1 = 0.8134	x1 = 0.9145	x1 = 1
288.15 K	978.81	1008.61	1032.1	1061.02	1089.5	1119.7	1149.67	1187.43	1225.5	1260.01
298.15 K	969.5	998.88	1022	1050.47	1078.46	1108.12	1137.52	1174.53	1211.76	1245.48
308.15 K	960.16	989.1	1011.86	1039.86	1067.36	1096.48	1125.3	1161.53	1197.92	1230.83
318.15 K	950.78	979.28	1001.67	1029.19	1056.19	1084.75	1112.98	1148.42	1183.96	1216.04

ClCCCCl [1,3-dichloropropane] + O=C1CCCCC1
mass density [kg/m3], [2]
Conditions	x1 = 0.1276	x1 = 0.227	x1 = 0.3268	x1 = 0.4189	x1 = 0.514	x1 = 0.6112	x1 = 0.7147	x1 = 0.8103	x1 = 0.8979	x1 = 1
288.15 K	979.76	1001.99	1024.79	1046.27	1068.86	1092.38	1118.03	1142.26	1164.89	1191.93
298.15 K	970.5	992.46	1014.95	1036.15	1058.41	1081.63	1106.86	1130.71	1152.99	1179.58
308.15 K	961.22	982.9	1005.09	1025.99	1047.94	1070.82	1095.64	1119.11	1141.03	1167.16
318.15 K	951.9	973.3	995.19	1015.78	1037.41	1059.94	1084.36	1107.45	1128.99	1154.67

ClCCCCCl [1,4-dichlorobutane] + O=C1CCCCC1
mass density [kg/m3], [2]
Conditions	x1 = 0.1063	x1 = 0.1969	x1 = 0.2901	x1 = 0.3808	x1 = 0.4803	x1 = 0.5814	x1 = 0.6763	x1 = 0.7751	x1 = 0.8849	x1 = 1
288.15 K	973.11	991.09	1009.39	1027.04	1046.24	1065.55	1083.46	1101.96	1122.33	1143.49
298.15 K	964	981.82	999.94	1017.42	1036.41	1055.52	1073.23	1091.52	1111.66	1132.57
308.15 K	954.86	972.51	990.46	1007.76	1026.55	1045.46	1062.97	1081.05	1100.96	1121.61
318.15 K	945.69	963.17	980.95	998.07	1016.66	1035.37	1052.68	1070.54	1090.21	1110.61

CCCCCl [1-chlorobutane] + O=C1CCCCC1
mass density [kg/m3], [2]
Conditions	x1 = 0.1152	x1 = 0.2084	x1 = 0.3068	x1 = 0.4067	x1 = 0.5041	x1 = 0.5841	x1 = 0.692	x1 = 0.7881	x1 = 0.882	x1 = 1
288.15 K	945.58	940.43	934.95	929.27	923.6	918.86	912.28	906.18	900.11	892.1
298.15 K	936.47	931.18	925.51	919.65	913.78	908.86	902.02	895.71	889.37	881.05
308.15 K	927.34	921.88	916.03	909.97	903.89	898.78	891.68	885.12	878.54	869.86
318.15 K	918.17	912.54	906.5	900.22	893.92	888.63	881.25	874.42	867.57	858.52

O=C1CCCCC1 [cyclohexanone] + CC(Cl)(Cl)Cl
[2], x2 = 0
Conditions	mass density [kg/m3]
288.15 K	951.69
298.15 K	942.76
308.15 K	933.8
318.15 K	924.82

O=C1CCCCC1 [cyclohexanone] + CCCCCl
[2], x2 = 0
Conditions	mass density [kg/m3]
288.15 K	951.69
298.15 K	942.76
308.15 K	933.8
318.15 K	924.82

O=C1CCCCC1 [cyclohexanone] + ClC(Cl)C(Cl)Cl
[2], x2 = 0
Conditions	mass density [kg/m3]
288.15 K	951.69
298.15 K	942.76
308.15 K	933.8
318.15 K	924.82

O=C1CCCCC1 [cyclohexanone] + ClC(Cl)Cl
[2], x2 = 0
Conditions	mass density [kg/m3]
288.15 K	951.69
298.15 K	942.76
308.15 K	933.8
318.15 K	924.82

O=C1CCCCC1 [cyclohexanone] + ClCCCCCl
[2], x2 = 0
Conditions	mass density [kg/m3]
288.15 K	951.69
298.15 K	942.76
308.15 K	933.8
318.15 K	924.82

O=C1CCCCC1 [cyclohexanone] + ClCCCCl
[2], x2 = 0
Conditions	mass density [kg/m3]
288.15 K	951.69
298.15 K	942.76
308.15 K	933.8
318.15 K	924.82

O=C1CCCCC1 [cyclohexanone] + ClCCCl
[2], x2 = 0
Conditions	mass density [kg/m3]
288.15 K	951.69
298.15 K	942.76
308.15 K	933.8
318.15 K	924.82

ClC(Cl)Cl [trichloromethane] + O=C1CCCCC1
mass density [kg/m3], [2]
Conditions	x1 = 0.1198	x1 = 0.2362	x1 = 0.305	x1 = 0.4235	x1 = 0.5103	x1 = 0.6047	x1 = 0.6953	x1 = 0.8109	x1 = 0.9089	x1 = 1
288.15 K	1004.15	1058.19	1091.64	1151.88	1198.22	1250.45	1303.06	1372.1	1433.35	1491.86
298.15 K	994.58	1047.93	1080.94	1140.29	1185.89	1237.16	1288.8	1356.3	1416.12	1473.16
308.15 K	984.97	1037.61	1070.16	1128.62	1173.48	1223.78	1274.42	1340.36	1398.68	1454.07
318.15 K	975.32	1027.25	1059.32	1116.88	1160.97	1210.28	1259.9	1324.23	1381.01	1434.72
